Test results reported in publication PMC7508583, “Discovery and Preclinical Development of Antigiardiasis Fumagillol Derivatives” (Antimicrobial Agents and Chemotherapy, 2020).
Like-named read-outs stand apart in the source and are kept apart here.

Assays:
[1] = test system: E. histolytica HM1:IMSS trophozoites; experiment: Trophozoite growth inhibition, ATP content (ATPlite) assay; type: cell-based; conditions: Entamoeba histolytica, 72 h, read-out: Mean [IC50 ± SE(IC50)] E. histolytica HM1: IMSS
Protocol: (§1) Antigiardia assays followed by enzyme inhibition determination facilitated the selection of compounds for permeation and stability studies by in vitro methods, prior to advancing to in vivo studies. Compound potency was evaluated first by measuring G. lamblia trophozoite growth as a function of the compound concentration and calculating the IC50 values. Potency in Entamoeba histolytica trophozoites was also determined because of the early report that fumagillin cured amebiasis ([19]). The intent was to test whether the compounds would be suitable to treat gastrointestinal amebiasis rather than the invasive form of the disease, given that the designed strategy was based on reducing compound permeation across the epithelial cell barrier. […] Trophozoite growth was determined by monitoring the ATP cell content using a high-throughput homogeneous assay developed previously for G. lamblia ([57]). The ATP content serves as a marker of cell integrity since ATP degrades rapidly when cells die and the luminescence signal generated by luciferase requires ATP. The same assay was also adopted in 96-well plates for E. histolytica trophozoite growth measurement, as described in Materials and Methods. A similar E. histolytica trophozoite ATP content assay was described previously ([58]). Fumagillin, TNP-470, and a standard-of-care drug (metronidazole) served as positive controls, and cells without the drug (in the presence of 0.5% dimethyl sulfoxide [DMSO]) served as the negative control.
E. histolytica strain HM1:IMSS trophozoites were grown at 37°C in TYI-S-33 medium supplemented with penicillin (100 U/ml) and streptomycin sulfate (100 μg/ml) ([65]). Trophozoites were grown anaerobically in borosilicate tubes or T25 flasks, and subcultures were made 1 to 2 times a week. Trophozoites were detached for inoculation by chilling the cultures on ice for 20 min.
The growth inhibition assays were performed in duplicate, once for each compound, for all compounds except fumagillin, which served as a positive control and whose inhibitory ability was measured multiple times as new sets of compounds were tested. All dry compounds except for fumagillin were dissolved in dimethyl sulfoxide (DMSO; Sigma) at a stock concentration of 10 mM and then diluted 1:100 in growth medium to a final compound concentration of 100 μM; fumagillin was diluted to 20 μM. Compound solution aliquots (100 μl) were prepared by 3-fold serial dilutions in growth medium containing 0.5% DMSO and distributed into 96-well assay plates. This was followed by the addition of 10 μl G. lamblia or E. histolytica culture containing 10,000 trophozoites. Fumagillin served as a positive control, and the medium-diluted DMSO alone served as a negative control. The assay plates were placed in a BD GasPak EZ container system (BD Diagnostics) to create an anaerobic growth environment. […] Following incubation, 70 μl/well of the ATPlite reagent (PerkinElmer) was added to the assay plates for one-step lysis and ATP level detection. The luminescent signals of the assay plates were measured on an EnSpire 2300 plate reader (PerkinElmer). Concentration-response titration points for each compound were fitted to a 4-parameter logistic nonlinear regression model using the KaleidaGraph tool, yielding the IC50 value and standard error (SE).

[2] = test system: G. lamblia WB trophozoites; experiment: as above; type: cell-based; conditions: Giardia duodenalis, 72 h, read-out: Mean [IC50 ± SE(IC50)] G. lamblia WB
Protocol: as §1
(§2) Trophozoites of G. lamblia isolates WB and GS were grown anaerobically in borosilicate glass screw-cap culture tubes (Fisher Scientific) at pH 7.0 in Keister’s modified TYI-S-33 medium (ATCC). The medium was supplemented with 10% heat-inactivated bovine serum (Sigma-Aldrich) and 0.05% bovine bile (Sigma-Aldrich). To attain low-oxygen-tension conditions, the tubes were filled to 85% to 90% of their total volume capacity and incubated without shaking at 37°C. Subcultures (2 × 10^5 trophozoites per tube) were made three times a week. Detachment of trophozoites for inoculation was achieved by chilling the cultures on ice for 20 min. Culturing and detachment of metronidazole-resistant G. lamblia assemblage A 713M3 and assemblage B 1279-M1 trophozoites followed the same protocol, except that the growth medium was supplemented with metronidazole, with the concentration gradually being increased to 10 μM.
(§3) The growth inhibition assays were performed in duplicate, once for each compound, for all compounds except fumagillin, which served as a positive control and whose inhibitory ability was measured multiple times as new sets of compounds were tested. All dry compounds except for fumagillin were dissolved in dimethyl sulfoxide (DMSO; Sigma) at a stock concentration of 10 mM and then diluted 1:100 in growth medium to a final compound concentration of 100 μM; fumagillin was diluted to 20 μM. Compound solution aliquots (100 μl) were prepared by 3-fold serial dilutions in growth medium containing 0.5% DMSO and distributed into 96-well assay plates. This was followed by the addition of 10 μl G. lamblia or E. histolytica culture containing 10,000 trophozoites. Fumagillin served as a positive control, and the medium-diluted DMSO alone served as a negative control. The assay plates were placed in a BD GasPak EZ container system (BD Diagnostics) to create an anaerobic growth environment. The sealed containers were incubated at 37°C for 72 h. Following incubation, 70 μl/well of the ATPlite reagent (PerkinElmer) was added to the assay plates for one-step lysis and ATP level detection. The luminescent signals of the assay plates were measured on an EnSpire 2300 plate reader (PerkinElmer). Concentration-response titration points for each compound were fitted to a 4-parameter logistic nonlinear regression model using the KaleidaGraph tool, yielding the IC50 value and standard error (SE).

[3] = test system: G. lamblia GS trophozoites; experiment: as above; type: cell-based, Giardia lamblia; conditions: for IC50: Giardia duodenalis, 72 h, read-out: Mean [IC50 ± SE(IC50)] G. lamblia GS
Protocol: as §1, §2, §3

in vitro = conditions: human; for Papp at 120 min, 10 µM: Caco-2, pH 7.4, Mean ± SE Papp, Caco-2, 10 μM
Text: Next, we tested the permeation of the compounds across polarized Caco-2 cell monolayers, a method that is widely used as an in vitro model of the human small intestinal mucosa to predict the absorption of orally administered drugs ([63], [64]). With noninvasive intestinal infections, there is no need to establish a high plasma concentration. Since a high rate of uptake through the host gut lining could increase compound toxicity, we sought to reduce gut absorption. […] Both apical-to-basal and basal-to-apical permeation values were measured to obtain information about efflux. […] The efflux machinery is currently unknown.
Passage 36 Caco-2 cells were used. The cells were cultured in Dulbecco’s modified Eagle’s medium (DMEM; 5 ml of 100 mM sodium pyruvate, 5 ml of 100× nonessential amino acids, 5 ml of penicillin-streptomycin, and 100 ml of heat-inactivated fetal bovine serum added to 385 ml of DMEM aseptically and mixed thoroughly), pH 7.4, at 37°C in 5% CO2. DMEM (250 μl) was added to the basal compartment of 96-well multiscreen Caco-2 cell plate consisting of high-pore-density polycarbonate (Millipore) with a 0.4-μm pore size and a 0.11-cm^2 active membrane area. The cells were seeded at a density of 12,000 cells/well (0.16 × 10^6 cells/ml) in the apical wells, with one well containing only medium as blank. The Caco-2 cell plate was placed in a CO2 incubator at 37°C for cell proliferation. On the day of assay, the medium was removed, washed twice with Hanks balanced salt solution (HBSS) buffer supplemented with 2% bovine serum albumin (BSA), pH 7.4, and incubated with the HBSS buffer for 30 min at 37°C. Wells with transepithelial electrical resistance values of greater than 230 Ω · cm^2 were selected for the experiments. […] The assay was performed in duplicate.
Seventy-five microliters of the test compounds was added to the apical wells, and 250 μl of HBSS buffer with 2% BSA was added to the basal wells. The plate was incubated in a CO2 incubator with shaking on a plate shaker at 150 rpm for 120 min, after which 25 μl of the basal samples was collected and processed.
Two hundred fifty microliters of test compounds was added to the basal wells, and 75 μl of HBSS buffer with 2% BSA was added to the apical wells. The plate was incubated in a CO2 incubator with shaking on a plate shaker at 150 rpm for 120 min, after which 25 μl of the apical samples was collected and processed.
For sample processing, a single-point calibration curve in HBSS buffer with 2% BSA was used. Donor samples were diluted 1:1 with HBSS containing 2% BSA, and receiver samples were diluted with 1:1 HBSS buffer and precipitated with 200 μl of acetonitrile containing internal standard. The samples were vortexed for 5 min at 1,000 rpm and centrifuged at 4,000 rpm for 10 min. One hundred microliters of the supernatant was diluted with 200 μl of water and analyzed by LC-MS/MS (with a Shimadzu ultrafast liquid chromatograph and an API 4000 LC-MS/MS system).
The apparent permeation coefficients (Papp) were calculated as Papp = (dQ/dT) × (1/C0) × (1/A), where dQ is the amount permeated to the receiver compartment of the 96-well plate, dT is the time of compound incubation, C0 is the initial compound concentration in the donor compartment of the well, and A is the surface area of the monolayer.

[4] = trophozoite growth, ATP content

SMILES	IC50 [1, 4]	IC50 [2, 4]	IC50 [3, 4]	also measured
COC1C(OC(=O)NC(=O)CN(C)C)CCC2(CO2)C1C1(C)OC1CC=C(C)C (centres unmarked) [Compound 1]	4.7 ± 0.5 nM	2 ± 0.2 nM	2.4 ± 0.5 nM	
COC1C(OC(=O)NC(=O)CN2CCCCC2)CCC2(CO2)C1C1(C)OC1CC=C(C)C (centres unmarked) [Compound 2]	435 ± 79 nM	90.9 ± 34.3 nM	82.5 ± 26.4 nM	
COC1C(OC(=O)NC(=O)CN2CCN(C)CC2)CCC2(CO2)C1C1(C)OC1CC=C(C)C (centres unmarked) [Compound 5]	117 ± 8.4 nM	22.3 ± 1.4 nM	12.3 ± 2.5 nM	
COC1C(OC(=O)NC(=O)CN2CCN(CCO)CC2)CCC2(CO2)C1C1(C)OC1CC=C(C)C (centres unmarked) [Compound 6]	223 ± 29.8 nM	53.6 ± 10.6 nM	37 ± 4.4 nM	
CO[C@@H]1[C@H](OC(=O)Nc2ccc(C(=O)N3CCC(O)CC3)cc2)CC[C@]2(CO2)[C@H]1[C@@]1(C)O[C@@H]1CC=C(C)C [Compound 10, (3R,4S,5S,6R)-5-methoxy-4-((2R,3R)-2-methyl-3-(3-methylbut-2-en-1-yl)oxiran-2-yl)-1-oxaspiro[2.5]octan-6-yl (4-(4-hydroxypiperidine-1-carbonyl)phenyl)carbamate]				IC50 [1]: 32 ± 2.1 nM; IC50 [2]: 171 ± 21 nM; IC50 [3]: 38.4 ± 3.4 nM
CCOC(=O)CNC(=O)OC1CCC2(CO2)C(C2(C)OC2CC=C(C)C)C1OC (centres unmarked) [Compound 13]				IC50 [1]: 23.7 ± 2.6 nM; IC50 [2]: 13.1 ± 2.4 nM; IC50 [3]: 1.5 ± 0.3 nM
CCOC(=O)CO[C@@H]1CC[C@]2(CO2)[C@@H]([C@@]2(C)O[C@@H]2CC=C(C)C)[C@@H]1OC [Compound 18, ethyl 2-(((3R,4S,5S,6R)-5-methoxy-4-((2R,3R)-2-methyl-3-(3-methylbut-2-en-1-yl)oxiran-2-yl)-1-oxaspiro[2.5]octan-6-yl)oxy)acetate]				IC50 [1]: 318 ± 16 nM; IC50 [2]: 42.6 ± 17.5 nM; IC50 [3]: 40.1 ± 4.8 nM
CO[C@@H]1[C@H](O)CC[C@]2(CO2)[C@H]1[C@@]1(C)O[C@@H]1CC=C(C)C [Fumagillol]				IC50 [3]: 3400 ± 489 nM
CC(C)NCC(O)COc1cccc2ccccc12 (centres unmarked) [Propranolol, reference compound]				efflux ratio at 120 min, 10 µM (in vitro; Caco-2, pH 7.4): 0.36; Papp at 120 min, 10 µM (in vitro; apical to basal): 22.6 ± 1.1 ×10⁻⁶ cm/s; Papp at 120 min, 10 µM (in vitro; basal to apical): 8.14 ± 0.28 ×10⁻⁶ cm/s
CO[C@@H]1[C@H](OC(=O)NC(=O)CCl)CC[C@]2(CO2)[C@H]1[C@@]1(C)O[C@@H]1CC=C(C)C [TNP-470, (3R,4S,5S,6R)-5-methoxy-4-((2R,3R)-2-methyl-3-(3-methylbut-2-en-1-yl)oxiran-2-yl)-1-oxaspiro[2.5]octan-6-yl (2-chloroacetyl)carbamate, reference compound]				IC50 [2]: 2.6 ± 0.2 nM; IC50 [3]: 3.4 ± 0.7 nM

Further lines, with some results ahead:

IC50 [1, 4]	IC50 [2, 4]	IC50 [3, 4]	SMILES	also measured
14.6 ± 2.6 nM	3.7 ± 1 nM	7 ± 1 nM	COC1C(OC(=O)Nc2ccccc2)CCC2(CO2)C1C1(C)OC1CC=C(C)C (centres unmarked) [Compound 7]	
54 ± 4.3 nM	12.5 ± 4.2 nM	27.2 ± 18.1 nM	CCOC(=O)c1ccc(NC(=O)OC2CCC3(CO3)C(C3(C)OC3CC=C(C)C)C2OC)cc1 (centres unmarked) [Compound 8]	fold less active than compound 7 ([3]; trophozoite IC50): ~4 fold
94 ± 6.8 nM	342 ± 50 nM	63.2 ± 10 nM	COC1C(OC(=O)Nc2ccc(CC(=O)O)cc2)CCC2(CO2)C1C1(C)OC1CC=C(C)C (centres unmarked) [Compound 12]	
11200 ± 123 nM	> 100000 nM	> 100000 nM	COC1C(OC(=O)NCC(=O)O)CCC2(CO2)C1C1(C)OC1CC=C(C)C (centres unmarked) [Compound 14]	
7.8 ± 0.6 nM	4.9 ± 2.2 nM	2.9 ± 0.8 nM	COC1C(OC(=O)N2CCCCC2)CCC2(CO2)C1C1(C)OC1CC=C(C)C (centres unmarked) [Compound 15]	
> 100000 nM	251 ± 70 nM	109 ± 13.7 nM	COC1C(OC(=O)N2CCN(c3ccccc3)CC2)CCC2(CO2)C1C1(C)OC1CC=C(C)C (centres unmarked) [Compound 17]	fold loss of potency compared to compound 16 ([3]; G. lamblia trophozoites): 100 fold
> 2000 nM	> 2000 nM	> 2000 nM	COC1C(OCC(=O)O)CCC2(CO2)C1C1(C)OC1CC=C(C)C (centres unmarked) [Compound 19]	
